The values that follow come from PubChem BioAssay (NCI).

Several values for one entry are separate records, joined by “and”; a condition that tells them apart may be missing. Equal values may be shown once.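 Briefly, cells in 96-well plates were exposed to five compound concentrations for 48 h, and endpoints were estimated by linear interpolation. GI50: concentration for 50% inhibition of growth. TGI is the concentration that stops growth completely.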

Common to all, as to test: growth of human tumour cells (NCI), 48 h
The test system of assay [1] is SNB-75 CNS.
In assay [2] the test system is SNB-19 CNS.
The subject of assay [3] is 786-0 renal.
Assay [4] relates to SF-539 CNS.
Assay [5] deals with UACC-62 melanoma.
In assay [6] the test system is NCI-H460 lung.
Assay [7] concerns EKVX NSCLC.
Assay [8] concerns KM12 colon.
The subject of assay [9] is NCI-H226 lung.
Assay [10] has as its system SR leukemia.

With `CC(C)CCCC(C)[C@H]1CCC2C3CC=C4C[C@@H](OC(=O)CC(CC(=O)[O-])C(=O)[O-])CC[C@]4(C)C3CC[C@@]21C.N.N.[Pt+4]` (stereo not given in full), the GI50 in assay [1], in assay [2], in [3], in assay [4], in assay [5] and in assay [6] was above 100 µM in each case. Further, the GI50 in assay [7] was above 100 µM. Also, the TGI in assay [1], in [2], in assay [3], in assay [4], in assay [5] and in assay [6] was above 100 µM in each case. The compound further registered a TGI in [7] above 100 µM.

As to `C=CC(=O)OCCCS(=O)(=O)[O-].C=CC(=O)OCCCS(=O)(=O)[O-].NC1CCCCC1N.[Pt+4]`, the GI50 in assay [1], in [2], in assay [3], in assay [4], in assay [8] and in [9] was above 25 µM in each case. The GI50 in assay [5], in assay [6] and in [7] was above 25 µM each time. Moreover, the TGI in assay [1], in assay [2], in assay [3], in assay [4], in assay [8] and in assay [9] was above 25 µM throughout. The TGI in [5], in assay [6] and in [7] was above 25 µM throughout.

`C=C(C)C1Cc2cc(C(C)=O)ccc2O1` (stereo not given): the TGI in [1], in assay [2], in assay [3], in assay [4], in assay [8] and in [9] was above 100 µM each time. Moreover, the TGI in assay [5], in assay [6] and in [7] was above 100 µM in each case.

As for `COc1ccc(C2C(C(=O)O)=C(CO)Oc3cc4c(cc32)OCO4)c(OC)c1` (stereo not given), the TGI in assay [1], in assay [2], in assay [3], in assay [4], in assay [5] and in [6] was above 100 µM each time. In assay [7], this compound yielded a TGI above 100 µM.

As for `CC(C(=O)c1ccc(O)cc1)C1(O)C(=O)Nc2c(Cl)cc(Cl)cc21` (stereo not given), the TGI in assay [1], in assay [2], in assay [3], in assay [4], in [8] and in assay [9] was above 100 µM throughout. Besides, the TGI in [5] was 21.7 µM; in [6] it was above 100 µM; in [7], above 100 µM.

Regarding `CN1CCC(n2cnc(-c3ccc(F)cc3)c2-c2ccnc(Nc3ccccc3)n2)CC1`, the GI50 is 7.22 µM in assay [1]; 16.1 µM in [2]; 8.4 µM in [3]; 13.2 µM in assay [4]; 8.11 µM in [8]; 18.3 µM in [9]. The values for the GI50 in [5], in assay [6] and in [7] were 6.54 µM, 5.39 µM and 3.75 µM, respectively. Besides, the TGI in assay [1] was 24.8 µM; in assay [2], above 25 µM; in [3], above 25 µM; in [4] it was above 25 µM; in assay [8], above 25 µM; in assay [9], above 25 µM. Also, the figures for the TGI in assay [5], in [6] and in assay [7] were above 23 µM, above 25 µM and above 25 µM, respectively.

With `CCSc1nnc(-c2ccc3ccccc3c2O)n1-c1ccccc1`, the GI50 in assay [1] is 71 µM; in [3], above 100 µM; in [4], above 100 µM; in assay [6] it was 3.25 µM. For the same compound, the TGI in [1], in assay [3], in assay [4] and in [6] was above 100 µM throughout.

On to `CC(C)(C)CC(C)(C)c1cc2c(O)c(c1)Cc1cc(C(C)(C)CC(C)(C)C)cc(c1O)Cc1cc(C(C)(C)CC(C)(C)C)cc(c1O)Cc1cc(C(C)(C)CC(C)(C)C)cc(c1O)Cc1cc(C(C)(C)CC(C)(C)C)cc(c1O)Cc1cc(C(C)(C)CC(C)(C)C)cc(c1O)Cc1cc(C(C)(C)CC(C)(C)C)cc(c1O)Cc1cc(C(C)(C)CC(C)(C)C)cc(c1O)C2`, for which the TGI in assay [1], in assay [2], in assay [3], in assay [4], in assay [8] and in [5] was above 100 µM in each case. Further, the TGI in assay [6] and in assay [7] was above 100 µM throughout.

As for `Cc1ccc(Nn2c(SCC(=O)Nc3nc(-c4ccccc4)cs3)nc(C)c2C)cc1`, the GI50 is 2.81 µM in [1]; 7.5 µM in assay [2]; 4.41 µM in assay [3]; 4.68 µM in [4]; 4.13 µM in assay [8]; 3.15 µM in assay [5]. The GI50 in [6] was 3.88 µM; in assay [7], 1.39 µM. Moreover, the TGI is above 100 µM in [1]; above 100 µM in assay [2]; above 100 µM in assay [3]; 35.2 µM in assay [4]; 19.1 µM in assay [8]; above 100 µM in assay [5]. Also, the TGI in assay [6] was 16.5 µM; in assay [7], 5.61 µM.

As to `CC/C(=N/O)C(C)C(=O)CCC(=O)Nc1ccc(Cl)cc1` (stereo not given), the TGI in assay [1], in assay [2], in assay [3], in assay [4], in [8] and in [9] was above 100 µM throughout. The TGI in [5], in assay [6] and in [7] was above 100 µM each time.

In the case of `[N-]=[N+]=Nc1nnc(CCCCc2nnc(N=[N+]=[N-])o2)o1`, the TGI in [1], in assay [2], in assay [3], in assay [4], in assay [8] and in assay [9] was above 100 µM throughout. In addition, the TGI in assay [5], in assay [6] and in assay [7] was above 100 µM in each case.

As to `COC(=O)CCC(=O)Nc1cc(C)ccc1C`, the TGI in [1], in assay [2], in [3], in assay [4], in assay [8] and in assay [9] was above 100 µM in each case. In addition, the TGI in assay [5], in assay [6] and in [7] was above 100 µM throughout.

In the case of `O=C(/C=C/c1cc(O)ccc1O)c1ccc(Cl)cc1`, the GI50 in assay [2] is 36.8 µM; in [3], 17.8 µM; in [8], 31.8 µM; in assay [9] it was 22.3 µM; in assay [5], 17.5 µM; in assay [6] it was 32.5 µM. The GI50 in assay [7] was 23.4 µM. The TGI in assay [2] is above 100 µM; in assay [3] it was 61 µM; in assay [8], above 100 µM; in assay [9], 66.8 µM; in assay [5] it was 40.1 µM; in [6] it was above 100 µM. In assay [7], this compound displayed a TGI of 54.7 µM.

Consider `CCN(CC)CCOc1ccccc1-n1c(C)ccc1-c1ccccc1`, for which the GI50 in [1] was 10.3 µM; in assay [2], 15.7 µM; in assay [3], 17.1 µM; in assay [4], 16.1 µM; in assay [8] it was 17.2 µM; in assay [5] it was 15.8 µM. The GI50 in assay [6] is 18.2 µM; in [7] it was 15.8 µM. Moreover, the TGI in assay [1] stood at 22.4 µM; in assay [2], 31.9 µM; in assay [3], 31.8 µM; in [4], 31 µM; in [8], 32.5 µM; in assay [5], 30.6 µM. Besides, the TGI is 38 µM in assay [6] and 33.6 µM in assay [7].

For `N#Cc1cc2c(=S)[nH]c(=S)[nH]c2nc1SCc1ccccc1`, the GI50 in assay [2] is above 100 µM; in [10] it was 41.3 µM; in assay [3], 28.1 µM; in assay [4] it was 57.1 µM; in assay [8], 29.2 µM; in [9] it was 24.4 µM. Also, the GI50 in assay [5] is 17 µM; in [6], 38.8 µM; in [7] it was 63.3 µM. The TGI in assay [2] is above 100 µM; in [10], above 100 µM; in assay [3], above 100 µM; in assay [4] it was above 100 µM; in assay [8], above 100 µM; in assay [9], 94.3 µM. In addition, the TGI in assay [5] was 54.6 µM; in assay [6], above 100 µM; in assay [7] it was above 100 µM.

`COc1ccccc1C(=O)Nc1ccc(Cl)c(C(=O)OC(C)C)c1`: the TGI in assay [1], in assay [2], in assay [3], in assay [4], in assay [8] and in assay [9] was above 100 µM each time. Besides, the TGI in assay [5] was above 63.4 µM; in assay [6], above 100 µM; in assay [7], above 100 µM.

Take `NC(CCSCCF)C(=O)O` (stereo not given): the TGI in [2], in [10], in [3], in assay [4], in assay [8] and in assay [9] was above 100 µM in each case. The TGI in assay [5], in assay [6] and in [7] was above 100 µM each time.

Regarding `COc1ccccc1CNC(=O)/C=C/c1ccc(O)c(O)c1`, the GI50 was 86.5 µM in assay [1]; 48.2 µM in assay [2]; 76.1 µM in assay [3]; 22.2 µM in assay [4]; 59.4 µM in [8]; 51.8 µM in assay [9]. The GI50 is 34.8 µM in assay [5], 45.9 µM in [6] and 48.2 µM in assay [7]. The TGI is above 100 µM in assay [1]; above 100 µM in [2]; above 100 µM in assay [3]; 65.9 µM in [4]; above 100 µM in [8]; above 100 µM in [9]. Besides, the TGI in [5], in assay [6] and in [7] was above 100 µM each time.

With `O=C(O)c1ccccc1C(=O)Nc1cc2c(cc1Br)-c1ccccc1C2=O`, the TGI in assay [1], in assay [2], in assay [3], in [4], in assay [8] and in assay [5] was above 100 µM in each case. The TGI in [6] and in assay [7] was above 100 µM in each case.

In the case of `C=CCC(O)c1cc(OC)ccc1OC` (stereo not given), the TGI in [1], in assay [2], in assay [3], in assay [4], in assay [8] and in [9] was above 100 µM throughout. Further, the TGI in assay [5], in assay [6] and in assay [7] was above 100 µM each time.

`O=C(Cc1ccc(-c2ccc(OCCN3CCOCC3)cc2)cn1)NCc1ccccc1`: the GI50 is 0.0333 µM and 0.0218 µM in [1]; 0.0528 µM and 0.0448 µM in assay [2]; 0.0675 µM and 0.0857 µM in [3]; 0.0283 µM and 0.0301 µM in assay [4]; 0.032 µM and 0.0387 µM in [8]; 0.244 µM and 0.112 µM in assay [9]. The GI50 in [5] was 0.0408 µM; in assay [6], 0.0355 µM and 0.0371 µM. Besides, the TGI in [1] is above 100 µM; in assay [2], above 100 µM; in [3], above 100 µM; in assay [8], above 7.88 µM; in assay [9], above 100 µM; in [5], above 100 µM. Moreover, the TGI is 16.2 µM and > 10 µM in assay [6]; above 100 µM in assay [7].

`CC1=C(C(=O)NCc2ccccc2)C(c2ccc(N(C)C)cc2)C(C(=O)NCc2ccccc2)=C(C)N1`: the TGI in assay [1], in assay [2], in [3], in assay [4], in [8] and in assay [9] was above 100 µM throughout. For the same compound, the TGI in [5], in [6] and in [7] was above 100 µM in each case.
